The values below are quoted from earlier work in patent US12202907B2, “Nucleic acids encoding and methods of producing proteins comprising antibody chains” (Innate Pharma, priority 2018, dated 2025).

This series has as its target T1, CD39 (Homo sapiens, UniProt P49961).
T1 sequence (P49961 1-510): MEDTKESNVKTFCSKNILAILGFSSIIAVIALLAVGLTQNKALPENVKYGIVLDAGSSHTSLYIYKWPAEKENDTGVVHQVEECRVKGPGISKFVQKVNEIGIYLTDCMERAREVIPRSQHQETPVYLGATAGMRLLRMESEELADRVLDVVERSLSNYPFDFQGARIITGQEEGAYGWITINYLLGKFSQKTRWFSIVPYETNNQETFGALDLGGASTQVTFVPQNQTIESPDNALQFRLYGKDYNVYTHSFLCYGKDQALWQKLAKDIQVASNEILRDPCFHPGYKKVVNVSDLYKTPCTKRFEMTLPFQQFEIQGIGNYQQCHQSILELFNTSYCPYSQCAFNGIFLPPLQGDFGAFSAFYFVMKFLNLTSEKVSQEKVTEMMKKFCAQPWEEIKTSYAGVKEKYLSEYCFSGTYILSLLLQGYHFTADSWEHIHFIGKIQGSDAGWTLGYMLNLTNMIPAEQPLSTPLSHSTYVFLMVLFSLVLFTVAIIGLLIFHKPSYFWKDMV
To be noted: Levesque et al. (2007); cited from earlier work.

For the compound `CCN(CC)c1ncnc2c1ncn2[C@@H]1O[C@H](COP(=O)(O)OP(=O)(O)C(Br)(Br)P(=O)(O)O)[C@@H](O)[C@H]1O` [ARL67156], the “inhibition of CD39 (mode, strength)” value is reported as “weak competitive inhibitor”.
